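A five-concentration, 48-hour dose response in 96-well plates underlies each endpoint, interpolated linearly between surrounding concentrations. GI50 = concentration required for 50% inhibition of growth.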 Calls of active or inactive are those of the source. Rule as the data show it: active = GI50 up to about 1.1 µM and inactive = higher.
Experiments:
Assay in all cases: growth of human tumour cells (NCI), 48 h
786-0 = test system: 786-0
A498 = test system: A498
A549 = test system: A549
ACHN = test system: ACHN
BT-549 = test system: BT-549
CAKI-1 = test system: CAKI-1
CCRF-CEM = test system: CCRF-CEM
COLO 205 = test system: COLO 205
DU-145 = test system: DU-145
EKVX = test system: EKVX
HCC 2998 = test system: HCC 2998
HCT-116 = test system: HCT-116
HCT-15 = test system: HCT-15
HL-60 = test system: HL-60
HOP-62 = test system: HOP-62
HOP-92 = test system: HOP-92
HT-29 = test system: HT-29
Hs-578T = test system: Hs-578T
IGROV-1 = test system: IGROV-1
K562 = test system: K562
KM12 = test system: KM12
LOX IMVI = test system: LOX IMVI
M14 = test system: M14
MCF7 = test system: MCF7
MDA-MB-231 = test system: MDA-MB-231
MDA-MB-435 = test system: MDA-MB-435
MDA-N = test system: MDA-N
MOLT-4 = test system: MOLT-4
Malme-3M = test system: Malme-3M
NCI-H226 = test system: NCI-H226
NCI-H23 = test system: NCI-H23
NCI-H460 = test system: NCI-H460
NCI-H522 = test system: NCI-H522
NCI/ADR-RES = test system: NCI/ADR-RES
OVCAR-3 = test system: OVCAR-3
OVCAR-4 = test system: OVCAR-4
OVCAR-5 = test system: OVCAR-5
OVCAR-8 = test system: OVCAR-8
PC-3 = test system: PC-3
RPMI-8226 = test system: RPMI-8226
RXF 393 = test system: RXF 393
SF-268 = test system: SF-268
SF-295 = test system: SF-295
SF-539 = test system: SF-539
SK-MEL-28 = test system: SK-MEL-28
SK-MEL-2 = test system: SK-MEL-2
SK-MEL-5 = test system: SK-MEL-5
SK-OV-3 = test system: SK-OV-3
SN12C = test system: SN12C
SNB-19 = test system: SNB-19
SNB-75 = test system: SNB-75
SR = test system: SR
SW-620 = test system: SW-620
T47D = test system: T47D
TK-10 = test system: TK-10
U-251 = test system: U-251
UACC-257 = test system: UACC-257
UACC-62 = test system: UACC-62
UO-31 = test system: UO-31

Cc1ccc2c(O)cc(-c3ccc(Cl)cc3)nc2n1
GI50 (786-0): 5380 nM (inactive)
GI50 (A498): 9730 nM (inactive)
GI50 (A549): 2730 nM (inactive)
GI50 (ACHN): 8070 nM (inactive)
GI50 (BT-549): 2380 nM (inactive)
GI50 (CAKI-1): 5570 nM (inactive)
GI50 (CCRF-CEM): 7520 nM (inactive)
GI50 (COLO 205): 1850 nM (inactive)
GI50 (DU-145): 6050 nM (inactive)
GI50 (EKVX): 18000 nM (inactive)
GI50 (HCC 2998): 6650 nM (inactive)
GI50 (HCT-116): 3100 nM (inactive)
GI50 (HCT-15): 3310 nM
GI50 (HL-60): 2690 nM (inactive)
GI50 (HOP-62): 9160 nM (inactive)
GI50 (HOP-92): 13600 nM (inactive)
GI50 (HT-29): 3300 nM (inactive)
GI50 (Hs-578T): 11900 nM (inactive)
GI50 (IGROV-1): 5690 nM (inactive)
GI50 (K562): 2580 nM (inactive)
GI50 (KM12): 4570 nM (inactive)
GI50 (LOX IMVI): 4930 nM (inactive)
GI50 (M14): 7480 nM (inactive)
GI50 (MCF7): 3350 nM (inactive)
GI50 (MDA-MB-231): 5520 nM (inactive)
GI50 (MDA-MB-435): 1320 nM (inactive)
GI50 (MDA-N): 1560 nM (inactive)
GI50 (MOLT-4): 1200 nM (inactive)
GI50 (Malme-3M): 3740 nM (inactive)
GI50 (NCI-H226): 14900 nM (inactive)
GI50 (NCI-H23): 27200 nM (inactive)
GI50 (NCI-H460): 3690 nM (inactive)
GI50 (NCI-H522): 5890 nM (inactive)
GI50 (NCI/ADR-RES): 8890 nM (inactive)
GI50 (OVCAR-3): 3100 nM (inactive)
GI50 (OVCAR-4): 15200 nM (inactive)
GI50 (OVCAR-5): > 39300 nM (inactive)
GI50 (OVCAR-8): 9330 nM (inactive)
GI50 (PC-3): 2960 nM (inactive)
GI50 (RPMI-8226): 1870 nM (inactive)
GI50 (RXF 393): 27200 nM (inactive)
GI50 (SF-268): 27000 nM (inactive)
GI50 (SF-295): 4590 nM (inactive)
GI50 (SF-539): 5160 nM (inactive)
GI50 (SK-MEL-28): 9660 nM (inactive)
GI50 (SK-MEL-2): 3980 nM (inactive)
GI50 (SK-MEL-5): 3470 nM (inactive)
GI50 (SK-OV-3): 6640 nM (inactive)
GI50 (SN12C): 4380 nM (inactive)
GI50 (SNB-19): 6970 nM (inactive)
GI50 (SNB-75): 8240 nM (inactive)
GI50 (SR): 4330 nM (inactive)
GI50 (SW-620): 5080 nM (inactive)
GI50 (T47D): 764 nM (active)
GI50 (TK-10): 21200 nM (inactive)
GI50 (U-251): 5470 nM (inactive)
GI50 (UACC-257): 15600 nM (inactive)
GI50 (UACC-62): 5150 nM (inactive)
GI50 (UO-31): 14300 nM (inactive)

C[C@@H]1C[C@H](O)[C@]2(O)O[C@@H]3C[C@@]4(C=O)[C@@H](CC[C@@H]5[C@@H]4CC[C@]4(C)[C@@H](C6=CC(=O)OC6)CC[C@]54O)C[C@H]3O[C@@H]2O1 [CALOTROPIN]
GI50 (786-0): 15.6 nM (active)
GI50 (A498): 53.1 nM (active)
GI50 (A549): 14 nM (active)
GI50 (ACHN): 18.8 nM (active)
GI50 (BT-549): 23.1 nM (active)
GI50 (CAKI-1): 23 nM (active)
GI50 (CCRF-CEM): 17.5 nM (active)
GI50 (COLO 205): 72.6 nM (active)
GI50 (DU-145): 13.4 nM (active)
GI50 (EKVX): 17.8 nM (active)
GI50 (HCC 2998): 59.3 nM (active)
GI50 (HCT-116): 19.3 nM (active)
GI50 (HCT-15): 32.7 nM
GI50 (HL-60): 39.7 nM (active)
GI50 (HOP-62): 24.4 nM (active)
GI50 (HOP-92): 54.5 nM (active)
GI50 (HT-29): 42.5 nM (active)
GI50 (Hs-578T): 26.3 nM (active)
GI50 (IGROV-1): 20.9 nM (active)
GI50 (K562): 36.5 nM (active)
GI50 (KM12): 80.9 nM (active)
GI50 (LOX IMVI): 23.1 nM (active)
GI50 (M14): 65 nM (active)
GI50 (MCF7): 23.8 nM (active)
GI50 (MDA-MB-231): 221 nM (active)
GI50 (MDA-MB-435): 67.5 nM (active)
GI50 (MDA-N): 69.2 nM (active)
GI50 (MOLT-4): 16.3 nM (active)
GI50 (Malme-3M): 16.7 nM (active)
GI50 (NCI-H226): 81.5 nM (active)
GI50 (NCI-H23): 18.8 nM (active)
GI50 (NCI-H460): 18.7 nM (active)
GI50 (NCI-H522): 16.2 nM (active)
GI50 (NCI/ADR-RES): 20.6 nM (active)
GI50 (OVCAR-3): 18.2 nM (active)
GI50 (OVCAR-4): 17.9 nM (active)
GI50 (OVCAR-5): 126 nM (active)
GI50 (OVCAR-8): 34.8 nM (active)
GI50 (PC-3): 23.4 nM (active)
GI50 (RPMI-8226): 24.6 nM (active)
GI50 (RXF 393): 17.6 nM (active)
GI50 (SF-268): 40.6 nM (active)
GI50 (SF-295): 37.2 nM (active)
GI50 (SF-539): 21.2 nM (active)
GI50 (SK-MEL-28): 112 nM (active)
GI50 (SK-MEL-2): 43.6 nM (active)
GI50 (SK-MEL-5): 27.8 nM (active)
GI50 (SK-OV-3): 35.1 nM (active)
GI50 (SN12C): 20.2 nM (active)
GI50 (SNB-19): 83 nM (active)
GI50 (SNB-75): 68.9 nM (active)
GI50 (SR): 18.1 nM (active)
GI50 (SW-620): 24.7 nM (active)
GI50 (T47D): 30.3 nM (active)
GI50 (TK-10): 25.4 nM (active)
GI50 (U-251): 34 nM (active)
GI50 (UACC-257): 59.2 nM (active)
GI50 (UACC-62): 71.8 nM (active)
GI50 (UO-31): 58.3 nM (active)

— ChEMBL document CHEMBL1201862, “PubChem BioAssay data set” (2004)
